Laboratory results from patent US11130733B2, “4-OXO-alkylated tetramic acid compound, preparation method and use thereof” (BEIJING JOEKAI BIOTECH. LLC, priority 2017, dated 2021).

Key:
[1] = system: Drosophilae containing and expressing human Abeta42 gene; test: Pavlov's olfactory-related instantaneous memory test in Drosophila; assay type: in vivo; settings: test medicament 100 μM, 50 μL per 100 drosophilae, 7 consecutive days; FIG. 1 and FIG. 2
Excerpt: Drosophila has a classical learning and memory paradigm, known as Pavlov's olfactory-related instantaneous memory. During the training program, a group of about 100 drosophilae were exposed sequentially to two odors, i.e., 3-octanol and 4-methylcyclohexanol, each odor for 60 seconds, and to fresh air for 45 seconds therebetween. During exposure to the first odor, the drosophilae were electrocuted on their feet (1.5-second pulses at 3.5-second intervals, 60V), while no electrocution was exerted during exposure to the second odor. In order to detect “instantaneous memory” (also known as “learning”), drosophilae were transferred to the selection area in the T maze immediately after training and forced to choose between the two odors. The drosophilae in each T-maze arm were then captured, anesthetized, and counted. The behavior index was calculated from the distribution of drosophilae in the T maze. […] In each experiment, the age of the control group was matched with that of the experimental group.
Pharmacodynamic evaluation of the candidate compounds: Drosophilae containing and expressing human Abeta42 gene were selected as a diseased control, and drosophilae containing but not expressing human Abeta42 gene were selected as a healthy control. The day after emergence of the drosophilae, male drosophilae were selected and fed. Starting from the third day, drosophilae were fed with a test medicament (100 μM, 50 μL per 100 drosophilae) for 7 consecutive days, 4 hours each day. The above memory test was performed on the drosophilae on the tenth day.

hERG potassium channel = hERG potassium channel (Homo sapiens, UniProt Q12809); test: hERG current, whole-cell patch clamp on HEK-hERG stable cell line; assay type: cell-based
Excerpt: Rapidly activated human delayed rectifier outward potassium current (IKr) is mainly mediated by hERG ion channels, and participates in human cardiomyocyte repolarization. Pharmaceutical blockade of this current is the main cause of prolonged QT syndrome, even acute arrhythmia and sudden death clinically.
In this experiment, a stable cell line HEK-hERG (from the Academy of Military Medical Sciences) was selected, and the whole-cell patch clamp technique was used to record the hERG current. Cell suspension was collected and added to a 35 mm culture dish, which was placed on an inverted microscope carrier. After cell attachment, perfusion was performed with an extracellular fluid at a flow rate of 1-2 mL/min. A glass microelectrode was drawn in two steps by a micropipette puller, and after filling with electrode inner fluid, the water resistance of the glass microelectrode was 2-5 MΩ. After the whole cell recording mode was established, the clamping potential was maintained to −80 mV. A depolarization voltage was exerted to +60 mV for 850 ms, followed by repolarization to −50 mV for 1275 ms to induce an hERG tail current. After current stabilization, continuous extracellular perfusion administration from a low concentration to a high concentration was adopted. Starting from the low concentration, continuous perfusion was performed until the efficacy was stable, followed by perfusion of the next concentration. When the inhibitory rate of a compound or positive control to the hERG current was less than 50%, the CV of each of five consecutive current values was less than 10%. When the inhibitory rate of a compound or positive control to the hERG current was more than 50% but less than 70%, the CV of each of five consecutive current values was less than 20%. If a current amplitude was reduced by less than 200 pA, or if the inhibitory rate was more than 70%, the CV of each of five consecutive current values was less than 30%.
A certain amount of a test sample was weighed and dissolved into DMSO to prepare a 30 mM stock solution. Prior to the experiment, the above stock solution was diluted by DMSO 10 times and 3 times step by step, and then the solution was diluted by extracellular fluid to a required concentration. The solution at working concentration should be checked for precipitation before use. If precipitation existed, the stock solution would be diluted to increase the final concentration of DMSO in the extracellular fluid. However, the final concentration of DMSO in the extracellular fluid would not exceed 0.5%. Continuous perfusion from low to high concentrations was done during the experiment. The half inhibitory concentration (IC50) of the test sample was obtained by the best fitting of Logistic equation.
When data were processed, stimulus release and signal acquisition were carried out by the software patchmaster; and a patch clamp amplifier amplified the signal and filtered it to 10 KHz. Fitmaster, excel, spass 21.0, and the like were used for further data analysis and curve fitting. The data were shown as mean values±standard deviation. In data processing, when the blocking effect on hERG was determined, the peak value of a tail current and its baseline were corrected. The inhibitory rates of the tail current were used to show the effects of various compounds at different concentrations. The inhibitory rate=100×(the peak value of the tail current before administration−the peak value of the tail current after administration)/the peak value of the tail current before administration %. IC50 values were fitted by the Hill equation:
[formula] wherein, y: I/Icontrol; max: 100%; min: 0%; [drug]: concentration of the test sample; nH: Hill slope; IC50: maximum half inhibition concentration of the test substance.
To induce a peak current of hERG tail current, the clamping potential was maintained at −80 mV, depolarized to 60 mV for 0.85 s, and then repolarized to −50 mV for 1.275 s. […]

[2] = system: Drosophilae containing and expressing human Abeta42 gene; test: Pavlov's olfactory-related instantaneous memory test in Drosophila; assay type: in vivo; settings: FIG. 3; with increase of dosage; compared with positive compound memantine hydrochloride
[3] = human, Inhibitory effect, Mean value ± standard deviation
[4] = human, Inhibitory effect, individual cells 1-4

hERG potassium channel, sequence (Q12809 whole entry): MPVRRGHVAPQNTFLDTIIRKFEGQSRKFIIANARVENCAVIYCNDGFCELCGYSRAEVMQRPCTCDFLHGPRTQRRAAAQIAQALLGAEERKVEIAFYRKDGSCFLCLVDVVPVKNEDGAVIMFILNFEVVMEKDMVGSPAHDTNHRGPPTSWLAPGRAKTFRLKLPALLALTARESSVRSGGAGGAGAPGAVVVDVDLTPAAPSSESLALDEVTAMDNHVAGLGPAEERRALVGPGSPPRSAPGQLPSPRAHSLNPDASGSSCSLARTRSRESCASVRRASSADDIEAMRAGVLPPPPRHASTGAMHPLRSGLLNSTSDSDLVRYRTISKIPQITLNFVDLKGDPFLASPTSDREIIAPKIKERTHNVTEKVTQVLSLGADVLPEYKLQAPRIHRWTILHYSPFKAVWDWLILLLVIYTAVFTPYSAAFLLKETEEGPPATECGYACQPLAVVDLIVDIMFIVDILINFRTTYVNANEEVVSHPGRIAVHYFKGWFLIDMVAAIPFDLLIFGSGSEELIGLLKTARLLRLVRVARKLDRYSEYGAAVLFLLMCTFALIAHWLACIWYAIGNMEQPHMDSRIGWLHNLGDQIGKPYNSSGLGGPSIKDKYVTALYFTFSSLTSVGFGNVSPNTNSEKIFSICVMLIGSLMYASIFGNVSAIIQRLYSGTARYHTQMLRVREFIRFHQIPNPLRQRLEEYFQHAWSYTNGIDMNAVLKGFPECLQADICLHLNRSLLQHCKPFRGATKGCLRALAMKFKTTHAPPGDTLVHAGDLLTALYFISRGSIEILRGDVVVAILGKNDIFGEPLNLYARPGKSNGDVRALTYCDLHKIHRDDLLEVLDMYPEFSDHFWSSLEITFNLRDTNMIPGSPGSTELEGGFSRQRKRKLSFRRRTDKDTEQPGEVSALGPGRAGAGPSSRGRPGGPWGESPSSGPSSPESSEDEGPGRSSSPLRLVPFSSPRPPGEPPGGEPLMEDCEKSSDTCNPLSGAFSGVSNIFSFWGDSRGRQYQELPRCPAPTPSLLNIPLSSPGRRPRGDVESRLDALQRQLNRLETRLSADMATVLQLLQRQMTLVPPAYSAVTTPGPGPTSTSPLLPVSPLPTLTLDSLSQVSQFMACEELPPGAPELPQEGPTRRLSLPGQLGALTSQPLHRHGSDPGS

O=C1C=C(OCc2ccc(F)cc2)[C@H](Cc2ccccc2)N1 [Compound 50561]
ability to improve the learning and memory of drosophilae [1]: best ability to improve the learning and memory of drosophilae | Hill coefficient (hERG potassium channel; Hill equation fit, N=4): 1.01 | IC50 (hERG potassium channel; human): 26.7 µM | inhibition at 300 nM (hERG potassium channel; [3]): 0.84 ± 3.93% | inhibition at 1 µM (hERG potassium channel; [3]): 3.43 ± 4.42% | inhibition at 3 µM (hERG potassium channel; [3]): 11.3 ± 4.09% | inhibition at 10 µM (hERG potassium channel; [3]): 25.7 ± 1.31% | inhibition at 30 µM (hERG potassium channel; [3]): 53.6 ± 3.6% | inhibition at 10 µM (hERG potassium channel; [4]): 24.1% | inhibition at 30 µM (hERG potassium channel; [4]): 59.6% | dose-effect relationship to improve memory of drosophilae [2]: eventually reaches or exceeds the level of the activity of the positive compound memantine hydrochloride
